Patent publication US20100280061A1, “NOVEL ANALGESIC THAT BINDS FILAMIN A” (priority 2009, published 2010)

Assays:
[1] = system: MOR-Gs/olf and MOR-Go coupling; experiment: Relative Gs/Go switching in organotypic striatal slice cultures (MOR-G protein coupling); format: cell-based, rat; conditions: for Go (MOR in anti-Gαo immunoprecipitates), average / Gs/Go-Coupled Ratio, average / Gs/olf (MOR in anti-Gαs/olf immunoprecipitates), average: striatal slice culture
Protocol: The experiments described herein were carried out on organotypic striatal slices from male Sprague Dawley rats (200 to 250 g) purchased from Taconic (Germantown, N.Y.). Rats were housed two per cage and maintained on a regular 12-hour light/dark cycle in a climate-controlled room with food and water available ad libitum and sacrificed by rapid decapitation. All data are presented as mean±standard error of the mean. Treatment effects were evaluated by two-way ANOVA followed by Newman-Keul's test for multiple comparisons. Two-tailed Student's t test was used for post hoc pairwise comparisons. The threshold for significance was p<0.05.
Striatal slices ([…]) were prepared using a Mcllwain tissue chopper (Mickle Laboratory Engineering Co., Surrey, UK). Slices were carefully transferred to sterile, porous culture inserts (0.4 μm, Millicell-CM) using the rear end of a glass Pasteur pipette. Each culture insert unit contained 2 slices and was placed into one well of the 12-well culture tray. […] The pH value was adjusted to 7.2 with HEPES buffer.
Cultures were first incubated for 2 days to minimize the impact of injury from slice preparation. Incubator settings throughout the experiment were 36° C. with 5% CO2.
Slices were returned to culture medium with normal serum after each drug exposure. Tissues were harvested 16 hours after the last drug exposure by centrifugation.
For determination of MOR-G protein coupling, slices were homogenized to generate synaptic membranes. […] Following centrifugation, striatal membrane lysates were immunoprecipitated with immobilized anti-Gαs/olf or -Gαo conjugated with immobilized protein G-agarose beads. The level of MOR in anti-Gαs/olf or -Gαo immunoprecipitates was determined by Western blotting using specific anti-MOR antibodies.

mu opiate receptor (MOR) = target: T1, mu opiate receptor (MOR) (Rattus norvegicus, UniProt P33535); experiment: [35S]GTPγS binding assay using striatal membranes (MOR agonist activity); format: biochemical; set-up: MOR agonist activity, [35S]GTPγS binding to Gαo, 0.1 μM / MOR agonist activity, [35S]GTPγS binding to Gαo, 1 μM / MOR agonist activity, [35S]GTPγS binding to Gαo, 1 μM + BFNA: reference not given here; conditions: for MOR agonist activity, [35S]GTPγS binding to Gαo, 0.1 μM: 0.1 μM compound; for MOR agonist activity, [35S]GTPγS binding to Gαo, 0.1 μM / MOR agonist activity, [35S]GTPγS binding to Gαo, 1 μM: striatal membranes; for MOR agonist activity, [35S]GTPγS binding to Gαo, 1 μM + BFNA: 1 μM compound + 1 μM β-funaltrexamine; for MOR agonist activity, [35S]GTPγS binding to Gαo, 1 μM: 1 μM compound
T1 construct: from tissue; host or cells: striatal tissue (membrane preparation)
Protocol: To assess the mu opiate receptor (MOR) agonist activity of positive compounds from the FLNA screening, compounds were tested in a [^35S]GTPγS binding assay using striatal membranes. Our previous study has shown that in striatal membranes, activation of MOR leads to an increase in [^35S]GTPγS binding to Gαo (Wang et al., 2005 Neuroscience 135:247-261).
Striatal tissue was homogenized in 10 volumes of ice cold 25 mM HEPES buffer, pH 7.4, which contained 1 mM EGTA, 100 mM sucrose, 50 μg/ml leupeptin, 0.04 mM PMSF, 2 μg/ml soybean trypsin inhibitor and 0.2% 2-mercaptoethanol. The homogenates were centrifuged at 800×g for 5 minutes and the supernatants were centrifuged at 49,000×g for 20 minutes. The resulting pellets were suspended in 10 volume of reaction buffer, which contained 25 mM HEPES, pH 7.5, 100 mM NaCl, 50 μg/ml leupeptin, 2 μg/ml soybean trypsin inhibitor, 0.04 mM PMSF and 0.02% […].
The resultant striatal membrane preparation (200 μg) was admixed and maintained (incubated) at 30° C. for 5 minutes in reaction buffer as above that additionally contained 1 mM MgCl2 and 0.5 nM [^35S]GTPγS (0.1 μCi/assay, PerkinElmer Life and Analytical Sciences) in a total volume of 250 μl and continued for 5 minutes in the absence or presence of 0.1-10 μM of an assayed compound of interest. The reaction was terminated by dilution with 750 μl of ice-cold reaction buffer that contained 20 mM MgCl2 and 1 mM EGTA and immediate centrifugation at 16,000×g for 5 minutes.
The resulting pellet was solubilized by sonicating for 10 seconds in 0.5 ml of immunoprecipitation buffer containing 0.5% digitonin, 0.2% sodium cholate and 0.5% NP-40. Normal rabbit serum (1 μl) was added to 1 ml of lysate and incubated at 25° C. for 30 minutes. Nonspecific immune complexes were removed by incubation with 25 μl of protein A/G-conjugated agarose beads at 25° C. for 30 minutes followed by centrifugation at 5,000×g at 4° C. for 5 minutes. The supernatant was divided and separately incubated at 25° C. for 30 minutes with antibodies raised against Gαo proteins (1:1,000 dilutions).
The immunocomplexes so formed were collected by incubation at 25° C. for 30 minutes with 40 μl of agarose-conjugated protein A/G beads and centrifugation at 5,000×g at 4° C. for 5 minutes. The pellet was washed and suspended in buffer containing 50 mM Tris-HCl, pH 8.0, and 1% NP-40. The radioactivity in the suspension was determined by liquid scintillation spectrometry. […] DAMGO (H-Tyr-D-Ala-Gly-N-MePhe-Gly-OH; 1 or 10 μM) was used as a positive control.

mouse = experiment: Mouse hot-water tail-flick test; format: in vivo; conditions: orally administered
Protocol: The mouse “tail flick” test was used to assay the relative antinociceptive activity of compositions containing a compound to be assayed.
This assay was substantially that disclosed by Xie et al., 2005 J. Neurosci 25:409-416.
The mouse hot-water tail-flick test was performed by placing the distal third of the tail in a water bath maintained at 52° C. The latency until tail withdrawal from the bath was determined and compared among the treatments. A 10 second cutoff was used to avoid tissue damage. Data are converted to percentage of antinociception by the following formula: (response latency−baseline latency)/(cutoff−baseline latency)×100 to generate dose-response curves. […] Relative potency was determined as a ratio of the A50 values.

[2] = target: Bn-VAKGL pentapeptide of filamin A (FLNA) (Homo sapiens, UniProt P21333); experiment: FITC-NLX-based FLNA screening assay (FLNA peptide binding assay); conditions: 10 nM FITC-NLX
Protocol: The final assay volume is 100 μl.
Compounds are tested in triplicate or quadruplicate.

filamin A = filamin A (Homo sapiens, UniProt P21333); conditions: read-out: affinity of binding to filamin A; cited from earlier work
[3] = 32 mg/kg, at about 20-30 minutes

T1 sequence (P33535 whole entry): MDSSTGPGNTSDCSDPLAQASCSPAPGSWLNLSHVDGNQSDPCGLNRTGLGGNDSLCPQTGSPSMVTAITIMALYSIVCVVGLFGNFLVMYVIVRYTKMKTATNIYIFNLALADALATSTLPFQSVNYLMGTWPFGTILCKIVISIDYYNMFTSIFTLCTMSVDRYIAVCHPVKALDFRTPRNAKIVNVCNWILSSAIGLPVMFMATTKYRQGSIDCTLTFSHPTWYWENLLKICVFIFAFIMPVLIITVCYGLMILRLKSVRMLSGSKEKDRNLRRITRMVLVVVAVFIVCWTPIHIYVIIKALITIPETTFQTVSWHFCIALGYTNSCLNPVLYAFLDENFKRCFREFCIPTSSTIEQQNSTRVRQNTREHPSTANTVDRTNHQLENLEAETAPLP
Chain of filamin A (P21333 whole entry): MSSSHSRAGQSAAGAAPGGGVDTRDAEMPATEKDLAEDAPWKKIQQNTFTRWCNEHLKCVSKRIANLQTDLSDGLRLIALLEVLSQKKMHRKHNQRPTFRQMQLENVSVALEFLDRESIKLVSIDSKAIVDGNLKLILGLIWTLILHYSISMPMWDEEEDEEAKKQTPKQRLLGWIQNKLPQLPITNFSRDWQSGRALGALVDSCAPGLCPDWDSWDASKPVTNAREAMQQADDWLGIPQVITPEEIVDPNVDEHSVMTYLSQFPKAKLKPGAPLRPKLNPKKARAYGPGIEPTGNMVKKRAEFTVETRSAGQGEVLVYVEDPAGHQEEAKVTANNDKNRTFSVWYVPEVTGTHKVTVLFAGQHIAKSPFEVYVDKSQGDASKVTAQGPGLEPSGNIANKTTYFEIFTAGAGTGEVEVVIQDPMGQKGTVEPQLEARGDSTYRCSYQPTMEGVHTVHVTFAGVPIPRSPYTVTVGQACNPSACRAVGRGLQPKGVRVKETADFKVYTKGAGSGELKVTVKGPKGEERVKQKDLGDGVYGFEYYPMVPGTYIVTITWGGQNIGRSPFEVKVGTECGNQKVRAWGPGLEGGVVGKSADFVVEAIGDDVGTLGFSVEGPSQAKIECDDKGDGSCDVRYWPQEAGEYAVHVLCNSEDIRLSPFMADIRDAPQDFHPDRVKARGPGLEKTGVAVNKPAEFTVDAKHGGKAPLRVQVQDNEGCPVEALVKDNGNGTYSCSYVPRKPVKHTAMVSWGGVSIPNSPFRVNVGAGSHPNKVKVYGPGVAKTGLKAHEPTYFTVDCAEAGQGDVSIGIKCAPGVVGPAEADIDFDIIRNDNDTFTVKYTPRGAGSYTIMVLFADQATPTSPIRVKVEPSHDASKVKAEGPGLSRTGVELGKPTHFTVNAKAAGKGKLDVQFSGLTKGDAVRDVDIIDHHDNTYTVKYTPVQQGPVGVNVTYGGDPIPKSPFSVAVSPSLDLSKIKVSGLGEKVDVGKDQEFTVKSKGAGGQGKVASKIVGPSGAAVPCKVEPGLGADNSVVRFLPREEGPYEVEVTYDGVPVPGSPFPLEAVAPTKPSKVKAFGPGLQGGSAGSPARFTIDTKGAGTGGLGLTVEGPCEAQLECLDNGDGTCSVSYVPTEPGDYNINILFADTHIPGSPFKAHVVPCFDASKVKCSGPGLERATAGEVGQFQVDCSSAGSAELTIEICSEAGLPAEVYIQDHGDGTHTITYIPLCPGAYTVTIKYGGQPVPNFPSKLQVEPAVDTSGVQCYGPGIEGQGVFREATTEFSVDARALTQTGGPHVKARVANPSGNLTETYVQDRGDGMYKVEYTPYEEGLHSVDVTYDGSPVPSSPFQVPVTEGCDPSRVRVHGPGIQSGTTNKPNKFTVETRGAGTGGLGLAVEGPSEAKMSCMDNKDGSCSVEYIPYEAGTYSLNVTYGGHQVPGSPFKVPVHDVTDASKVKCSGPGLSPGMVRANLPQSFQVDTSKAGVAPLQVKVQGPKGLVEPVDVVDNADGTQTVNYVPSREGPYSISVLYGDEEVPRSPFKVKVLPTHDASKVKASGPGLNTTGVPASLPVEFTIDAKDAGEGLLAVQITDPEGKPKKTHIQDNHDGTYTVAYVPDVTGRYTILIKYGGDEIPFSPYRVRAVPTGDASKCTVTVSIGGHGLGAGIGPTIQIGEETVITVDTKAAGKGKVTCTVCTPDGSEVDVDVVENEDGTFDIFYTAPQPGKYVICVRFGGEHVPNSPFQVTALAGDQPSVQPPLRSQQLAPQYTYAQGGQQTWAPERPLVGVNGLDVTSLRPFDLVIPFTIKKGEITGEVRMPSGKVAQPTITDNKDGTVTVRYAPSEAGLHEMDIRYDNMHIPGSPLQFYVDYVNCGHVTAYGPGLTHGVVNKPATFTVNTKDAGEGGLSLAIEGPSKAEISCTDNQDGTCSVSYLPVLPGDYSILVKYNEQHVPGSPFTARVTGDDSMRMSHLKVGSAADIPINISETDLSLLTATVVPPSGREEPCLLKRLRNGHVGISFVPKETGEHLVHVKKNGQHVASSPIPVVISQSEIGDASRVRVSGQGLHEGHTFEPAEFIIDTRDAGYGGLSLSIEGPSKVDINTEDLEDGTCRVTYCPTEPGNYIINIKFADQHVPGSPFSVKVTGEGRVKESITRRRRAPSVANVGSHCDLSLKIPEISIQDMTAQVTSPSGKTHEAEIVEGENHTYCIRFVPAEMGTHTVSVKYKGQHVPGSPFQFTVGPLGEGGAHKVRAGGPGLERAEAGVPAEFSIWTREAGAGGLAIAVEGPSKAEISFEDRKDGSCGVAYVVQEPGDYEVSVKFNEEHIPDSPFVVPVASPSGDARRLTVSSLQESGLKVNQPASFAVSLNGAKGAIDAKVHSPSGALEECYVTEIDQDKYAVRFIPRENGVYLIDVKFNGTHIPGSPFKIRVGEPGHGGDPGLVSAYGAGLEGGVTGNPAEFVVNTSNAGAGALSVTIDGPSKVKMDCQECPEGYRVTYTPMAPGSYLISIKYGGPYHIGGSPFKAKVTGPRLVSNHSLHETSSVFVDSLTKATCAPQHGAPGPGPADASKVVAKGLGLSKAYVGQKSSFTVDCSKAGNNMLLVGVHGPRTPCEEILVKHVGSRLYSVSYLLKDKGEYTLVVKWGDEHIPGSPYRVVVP

COc1ccc2c3c1O[C@H]1C(=O)CC[C@@]4(O)[C@@H](C2)N(C)CC[C@]314 [Oxycodone, oxycodone, reference compound]
switch of mu opioid receptors from Go to Gs coupling ([1]; 7 days of twice daily 1-hour exposures, organotypic striatal slice cultures): switch from Go to Gs coupling

COc1ccccc1CC(=O)CC1c2c(cc3c(c2OC)OCO3)CC[N+]1(C)C (centres unmarked) [compound 5009]
MOR agonist activity, [35S]GTPγS binding to Gαo, 0.1 μM (mu opiate receptor (MOR)): 128.5% | MOR agonist activity, [35S]GTPγS binding to Gαo, 1 μM + BFNA (mu opiate receptor (MOR)): 87.5% | MOR agonist activity, [35S]GTPγS binding to Gαo, 1 μM (mu opiate receptor (MOR)): 270.4% | mean maximum antinoniception amount (mouse; [3]): about 30%

COc1cccc(OC)c1CC(=O)CC1c2c(cc3c(c2OC)OCO3)CC[N+]1(C)C.[I-] (centres unmarked) [B0036]
MOR agonist activity, [35S]GTPγS binding to Gαo, 0.1 μM (mu opiate receptor (MOR)): 61.4% | MOR agonist activity, [35S]GTPγS binding to Gαo, 1 μM + BFNA (mu opiate receptor (MOR)): 65.1% | MOR agonist activity, [35S]GTPγS binding to Gαo, 1 μM (mu opiate receptor (MOR)): 120.6% | Percent inhibition of FITC-NLX binding, 0.01 μM ([2]; 0.01 μM compound): 46.6% | Percent inhibition of FITC-NLX binding, 0.1 μM ([2]; 0.1 μM compound): 52.8% | Percent inhibition of FITC-NLX binding, 1 μM ([2]; 1 μM compound): 62.1% | mean maximum antinoniception amount (mouse; [3]): about 20%

O=C1CC[C@@]2(O)[C@H]3Cc4ccc(O)c5c4[C@@]2(CCN3CC2CC2)[C@H]1O5 [NTX, naltrexone]
Kd (filamin A): ~4 pM

C=CCN1CC[C@]23c4c5ccc(O)c4O[C@H]2C(=O)CC[C@@]3(O)[C@H]1C5 [NLX, naloxone]
Kd (filamin A): ~4 pM

CN1CC[C@]23c4c5ccc(O)c4O[C@H]2[C@@H](O)C=C[C@H]3[C@H]1C5 [morphine, reference compound]
mean maximum antinoniception amount (mouse; 56 mg/kg, at about 20 minutes): about 43% | antinoniceptive effect (mouse; same dose (32 mg/kg), at thirty minutes): about 30%

COc1c2c(cc3c1C(CC(O)CCc1ccccc1)N(C)CC3)OCO2 (centres unmarked) [B0051]
MOR agonist activity, [35S]GTPγS binding to Gαo, 0.1 μM (mu opiate receptor (MOR)): 115.6% | MOR agonist activity, [35S]GTPγS binding to Gαo, 1 μM + BFNA (mu opiate receptor (MOR)): 43.8% | MOR agonist activity, [35S]GTPγS binding to Gαo, 1 μM (mu opiate receptor (MOR)): 161.9% | Percent inhibition of FITC-NLX binding, 0.01 μM ([2]; 0.01 μM compound): 29.9% | Percent inhibition of FITC-NLX binding, 0.1 μM ([2]; 0.1 μM compound): 35.7% | Percent inhibition of FITC-NLX binding, 1 μM ([2]; 1 μM compound): 43.7%

COCOc1ccc(CCC(=O)CC2c3c(cc4c(c3OC)OCO4)CC[N+]2(C)C)cc1.[I-] (centres unmarked) [B0040]
MOR agonist activity, [35S]GTPγS binding to Gαo, 0.1 μM (mu opiate receptor (MOR)): 146.0% | MOR agonist activity, [35S]GTPγS binding to Gαo, 1 μM + BFNA (mu opiate receptor (MOR)): 55.3% | MOR agonist activity, [35S]GTPγS binding to Gαo, 1 μM (mu opiate receptor (MOR)): 243.3% | Percent inhibition of FITC-NLX binding, 0.01 μM ([2]; 0.01 μM compound): 40.0% | Percent inhibition of FITC-NLX binding, 0.1 μM ([2]; 0.1 μM compound): 53.1% | Percent inhibition of FITC-NLX binding, 1 μM ([2]; 1 μM compound): 57.1% | mean maximum antinoniception amount (mouse; [3]): about 25% | Go (MOR in anti-Gαo immunoprecipitates), average ([1]; 10 μM): 1419.8 | Gs/Go-Coupled Ratio, average ([1]; 10 μM): 0.598 | Gs/olf (MOR in anti-Gαs/olf immunoprecipitates), average ([1]; 10 μM): 839.0 | Go (MOR in anti-Gαo immunoprecipitates), average ([1]; 100 μM): 1472.6 | Gs/Go-Coupled Ratio, average ([1]; 100 μM): 0.332 | Gs/olf (MOR in anti-Gαs/olf immunoprecipitates), average ([1]; 100 μM): 867.2

COc1ccc(CCC(=O)CC2c3c(cc4c(c3OC)OCO4)CC[N+]2(C)C)cc1OC.[I-] (centres unmarked) [B0042]
MOR agonist activity, [35S]GTPγS binding to Gαo, 0.1 μM (mu opiate receptor (MOR)): 69.9% | MOR agonist activity, [35S]GTPγS binding to Gαo, 1 μM + BFNA (mu opiate receptor (MOR)): 43.1% | MOR agonist activity, [35S]GTPγS binding to Gαo, 1 μM (mu opiate receptor (MOR)): 107.5% | Percent inhibition of FITC-NLX binding, 0.01 μM ([2]; 0.01 μM compound): 40.8% | Percent inhibition of FITC-NLX binding, 0.1 μM ([2]; 0.1 μM compound): 46.4% | Percent inhibition of FITC-NLX binding, 1 μM ([2]; 1 μM compound): 51.6%

COc1c2c(cc3c1C(CC(O)Cc1ccccc1C)N(C)CC3)OCO2 (centres unmarked) [B0054]
MOR agonist activity, [35S]GTPγS binding to Gαo, 0.1 μM (mu opiate receptor (MOR)): 157.8% | MOR agonist activity, [35S]GTPγS binding to Gαo, 1 μM + BFNA (mu opiate receptor (MOR)): 111.0% | MOR agonist activity, [35S]GTPγS binding to Gαo, 1 μM (mu opiate receptor (MOR)): 186.7% | inhibition at 0.01 µM ([2]; read-out: Percent inhibition of FITC-NLX binding, 0.01 μM compound): 25.6% | inhibition at 0.1 µM ([2]; read-out: Percent inhibition of FITC-NLX binding, 0.1 μM compound): 32.6% | inhibition at 1 µM ([2]; read-out: Percent inhibition of FITC-NLX binding, 1 μM compound): 43.3%

COc1ccccc1C(=O)CC1c2c(cc3c(c2OC)OCO3)CC[N+]1(C)C (centres unmarked) [B0025]
MOR agonist activity, [35S]GTPγS binding to Gαo, 0.1 μM (mu opiate receptor (MOR)): 159.6% | MOR agonist activity, [35S]GTPγS binding to Gαo, 1 μM + BFNA (mu opiate receptor (MOR)): 137.7% | MOR agonist activity, [35S]GTPγS binding to Gαo, 1 μM (mu opiate receptor (MOR)): 234.6% | Percent inhibition of FITC-NLX binding, 0.01 μM ([2]; 0.01 μM compound): 41.7% | Percent inhibition of FITC-NLX binding, 0.1 μM ([2]; 0.1 μM compound): 49.4% | Percent inhibition of FITC-NLX binding, 1 μM ([2]; 1 μM compound): 56.6%
